Experimental data taken from ChEMBL document CHEMBL3991601, “The target landscape of clinical kinase drugs” (Science, 2017).
Activity calls are given as the source filed them. For most assays here, no stated cut-off is given here; in the data, actives have a measured Kd and inactives only a lower limit.

Assays:
[1] = biological target: Calcium/calmodulin-dependent protein kinase type II subunit delta (Homo sapiens, UniProt Q13557)
[2] = biological target: Protein-tyrosine kinase 6 (Homo sapiens, UniProt Q13882)
[3] = biological target: T1, Serine/threonine-protein kinase TAO2 (Homo sapiens, UniProt Q9UL54)
T1 sequence (Q9UL54 whole entry): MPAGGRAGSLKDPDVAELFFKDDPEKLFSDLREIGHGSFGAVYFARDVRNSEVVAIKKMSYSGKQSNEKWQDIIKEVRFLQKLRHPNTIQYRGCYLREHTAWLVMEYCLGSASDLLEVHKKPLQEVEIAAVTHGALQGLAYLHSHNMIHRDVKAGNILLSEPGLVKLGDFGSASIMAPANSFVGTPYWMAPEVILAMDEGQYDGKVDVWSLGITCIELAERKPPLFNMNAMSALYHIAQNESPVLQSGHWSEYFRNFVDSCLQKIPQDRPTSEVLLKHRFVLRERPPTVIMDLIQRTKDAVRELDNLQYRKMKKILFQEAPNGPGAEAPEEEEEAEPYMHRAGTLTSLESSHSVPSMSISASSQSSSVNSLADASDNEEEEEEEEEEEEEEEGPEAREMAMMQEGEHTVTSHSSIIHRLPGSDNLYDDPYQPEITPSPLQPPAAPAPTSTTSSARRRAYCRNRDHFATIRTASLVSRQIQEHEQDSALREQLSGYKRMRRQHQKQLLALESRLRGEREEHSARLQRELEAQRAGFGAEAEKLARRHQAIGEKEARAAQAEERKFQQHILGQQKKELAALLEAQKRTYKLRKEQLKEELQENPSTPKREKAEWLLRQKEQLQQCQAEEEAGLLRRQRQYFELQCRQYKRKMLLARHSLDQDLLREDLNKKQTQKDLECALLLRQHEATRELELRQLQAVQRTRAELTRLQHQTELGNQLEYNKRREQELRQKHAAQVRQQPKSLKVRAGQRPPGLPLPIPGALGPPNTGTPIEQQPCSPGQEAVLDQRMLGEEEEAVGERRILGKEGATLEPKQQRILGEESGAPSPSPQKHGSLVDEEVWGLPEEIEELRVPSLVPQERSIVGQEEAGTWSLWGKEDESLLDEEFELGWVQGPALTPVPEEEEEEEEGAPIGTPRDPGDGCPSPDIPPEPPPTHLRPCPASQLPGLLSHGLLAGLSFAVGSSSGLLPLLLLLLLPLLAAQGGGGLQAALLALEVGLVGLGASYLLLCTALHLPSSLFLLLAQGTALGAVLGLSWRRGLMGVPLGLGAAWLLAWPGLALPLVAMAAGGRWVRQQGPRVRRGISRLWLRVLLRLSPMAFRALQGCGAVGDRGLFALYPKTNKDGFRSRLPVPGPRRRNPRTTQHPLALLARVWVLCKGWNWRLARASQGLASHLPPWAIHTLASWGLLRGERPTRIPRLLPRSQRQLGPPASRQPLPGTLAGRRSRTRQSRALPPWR

[4] = biological target: Tyrosine-protein kinase HCK (Homo sapiens, UniProt P08631)
LIM domain kinase 1 = LIM domain kinase 1 (Homo sapiens, UniProt P53667)
Heme oxygenase 2 = biological target: T2, Heme oxygenase 2 (Homo sapiens, UniProt P30519)
T2 sequence (P30519 whole entry): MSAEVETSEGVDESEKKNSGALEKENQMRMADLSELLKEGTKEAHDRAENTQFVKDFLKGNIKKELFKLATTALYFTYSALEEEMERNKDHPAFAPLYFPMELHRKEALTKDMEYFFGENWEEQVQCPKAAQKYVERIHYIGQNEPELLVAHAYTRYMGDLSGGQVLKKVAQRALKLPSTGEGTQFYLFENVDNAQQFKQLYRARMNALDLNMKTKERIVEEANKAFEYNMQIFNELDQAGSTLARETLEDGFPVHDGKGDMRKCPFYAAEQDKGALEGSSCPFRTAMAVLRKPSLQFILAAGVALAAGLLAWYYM

[5] = biological target: Serine/threonine-protein kinase pim-1 (Homo sapiens, UniProt P11309)
[6] = biological target: T3, Interleukin-1 receptor-associated kinase 3 (Homo sapiens, UniProt Q9Y616)
T3 sequence (Q9Y616 whole entry): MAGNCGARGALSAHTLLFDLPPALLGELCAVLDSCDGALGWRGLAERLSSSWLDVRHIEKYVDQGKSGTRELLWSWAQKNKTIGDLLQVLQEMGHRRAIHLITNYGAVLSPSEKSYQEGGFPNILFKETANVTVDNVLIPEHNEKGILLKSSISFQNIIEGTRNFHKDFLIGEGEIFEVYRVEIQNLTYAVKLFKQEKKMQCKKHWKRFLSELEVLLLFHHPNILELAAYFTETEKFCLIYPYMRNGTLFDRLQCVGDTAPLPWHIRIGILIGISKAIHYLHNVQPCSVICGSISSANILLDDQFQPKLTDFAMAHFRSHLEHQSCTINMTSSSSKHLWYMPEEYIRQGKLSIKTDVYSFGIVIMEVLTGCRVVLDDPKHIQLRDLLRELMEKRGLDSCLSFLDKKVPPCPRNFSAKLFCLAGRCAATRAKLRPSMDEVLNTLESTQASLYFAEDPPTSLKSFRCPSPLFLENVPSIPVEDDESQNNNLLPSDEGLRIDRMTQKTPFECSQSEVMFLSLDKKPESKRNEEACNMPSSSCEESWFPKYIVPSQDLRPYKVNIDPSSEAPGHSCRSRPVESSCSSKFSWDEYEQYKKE

[7] = biological target: Epithelial discoidin domain-containing receptor 1 (Homo sapiens, UniProt Q08345)
[8] = biological target: Receptor-interacting serine/threonine-protein kinase 3 (Homo sapiens, UniProt Q9Y572)
[9] = biological target: Guanine nucleotide-binding protein G(i) subunit alpha-2 (Homo sapiens, UniProt P04899)
[10] = biological target: 26S proteasome regulatory subunit 6B (Homo sapiens, UniProt P43686)
[11] = biological target: Mitogen-activated protein kinase 9 (Homo sapiens, UniProt P45984)
Sequence of Mitogen-activated protein kinase 9 (P45984 whole entry): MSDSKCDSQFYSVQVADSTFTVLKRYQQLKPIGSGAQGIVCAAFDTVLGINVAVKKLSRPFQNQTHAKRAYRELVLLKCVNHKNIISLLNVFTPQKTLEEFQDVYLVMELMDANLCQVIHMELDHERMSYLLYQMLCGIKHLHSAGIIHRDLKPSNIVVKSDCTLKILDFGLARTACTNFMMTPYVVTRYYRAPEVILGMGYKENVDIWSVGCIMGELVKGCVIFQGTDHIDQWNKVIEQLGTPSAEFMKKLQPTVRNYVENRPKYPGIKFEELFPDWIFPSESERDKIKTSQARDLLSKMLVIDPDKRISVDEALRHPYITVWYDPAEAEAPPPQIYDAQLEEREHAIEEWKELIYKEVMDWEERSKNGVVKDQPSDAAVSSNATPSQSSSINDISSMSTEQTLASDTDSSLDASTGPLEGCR

Sequence of 26S proteasome regulatory subunit 6B (P43686 whole entry): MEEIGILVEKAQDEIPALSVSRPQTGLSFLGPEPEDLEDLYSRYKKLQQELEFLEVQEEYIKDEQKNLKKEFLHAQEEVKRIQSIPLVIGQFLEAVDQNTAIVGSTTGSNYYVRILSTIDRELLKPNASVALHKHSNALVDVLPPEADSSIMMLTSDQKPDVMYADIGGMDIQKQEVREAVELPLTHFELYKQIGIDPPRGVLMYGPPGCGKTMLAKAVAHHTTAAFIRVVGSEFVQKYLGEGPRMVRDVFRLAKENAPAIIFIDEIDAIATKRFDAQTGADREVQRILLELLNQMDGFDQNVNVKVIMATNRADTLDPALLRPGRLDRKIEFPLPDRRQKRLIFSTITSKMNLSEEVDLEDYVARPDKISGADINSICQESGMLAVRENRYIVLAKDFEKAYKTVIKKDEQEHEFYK
Sequence of Tyrosine-protein kinase HCK (P08631 whole entry, the tested form may be a part): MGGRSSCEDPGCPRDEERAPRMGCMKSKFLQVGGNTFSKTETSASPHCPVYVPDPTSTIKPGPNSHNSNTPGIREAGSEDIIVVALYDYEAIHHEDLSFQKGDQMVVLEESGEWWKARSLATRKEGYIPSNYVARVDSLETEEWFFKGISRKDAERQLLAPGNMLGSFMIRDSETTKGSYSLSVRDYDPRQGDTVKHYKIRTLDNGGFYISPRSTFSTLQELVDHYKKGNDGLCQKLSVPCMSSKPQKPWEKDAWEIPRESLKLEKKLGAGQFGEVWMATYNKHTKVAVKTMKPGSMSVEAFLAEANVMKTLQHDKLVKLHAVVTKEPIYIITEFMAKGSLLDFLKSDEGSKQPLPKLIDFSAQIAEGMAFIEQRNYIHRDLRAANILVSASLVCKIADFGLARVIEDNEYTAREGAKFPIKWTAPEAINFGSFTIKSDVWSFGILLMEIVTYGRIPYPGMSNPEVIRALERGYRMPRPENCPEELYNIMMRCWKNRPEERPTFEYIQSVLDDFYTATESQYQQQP
Sequence of Protein-tyrosine kinase 6 (Q13882 whole entry): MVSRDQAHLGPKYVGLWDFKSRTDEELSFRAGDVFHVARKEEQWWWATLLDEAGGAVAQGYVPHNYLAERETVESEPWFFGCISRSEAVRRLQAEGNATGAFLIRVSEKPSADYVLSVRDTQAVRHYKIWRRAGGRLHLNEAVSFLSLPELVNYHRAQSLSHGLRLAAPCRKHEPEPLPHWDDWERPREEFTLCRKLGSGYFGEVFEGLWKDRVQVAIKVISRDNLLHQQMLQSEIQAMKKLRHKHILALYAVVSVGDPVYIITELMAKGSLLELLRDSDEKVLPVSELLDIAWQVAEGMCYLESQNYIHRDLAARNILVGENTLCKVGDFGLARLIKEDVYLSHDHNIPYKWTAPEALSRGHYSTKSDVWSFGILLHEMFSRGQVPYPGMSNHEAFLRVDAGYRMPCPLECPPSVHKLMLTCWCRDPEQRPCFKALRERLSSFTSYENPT
Sequence of Calcium/calmodulin-dependent protein kinase type II subunit delta (Q13557 whole entry): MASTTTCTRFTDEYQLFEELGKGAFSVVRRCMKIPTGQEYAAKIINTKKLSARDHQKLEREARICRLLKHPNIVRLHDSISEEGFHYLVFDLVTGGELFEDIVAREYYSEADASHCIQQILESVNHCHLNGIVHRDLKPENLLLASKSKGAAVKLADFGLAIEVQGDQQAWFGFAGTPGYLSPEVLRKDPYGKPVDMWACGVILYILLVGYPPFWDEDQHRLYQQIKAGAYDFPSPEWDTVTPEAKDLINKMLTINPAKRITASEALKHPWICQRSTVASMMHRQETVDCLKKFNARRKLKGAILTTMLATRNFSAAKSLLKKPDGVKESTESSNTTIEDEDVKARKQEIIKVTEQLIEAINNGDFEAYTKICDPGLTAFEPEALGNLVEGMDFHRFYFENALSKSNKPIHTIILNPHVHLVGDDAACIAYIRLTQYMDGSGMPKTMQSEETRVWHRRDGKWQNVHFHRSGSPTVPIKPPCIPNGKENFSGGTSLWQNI
Sequence of Epithelial discoidin domain-containing receptor 1 (Q08345 whole entry, the tested form may be a part): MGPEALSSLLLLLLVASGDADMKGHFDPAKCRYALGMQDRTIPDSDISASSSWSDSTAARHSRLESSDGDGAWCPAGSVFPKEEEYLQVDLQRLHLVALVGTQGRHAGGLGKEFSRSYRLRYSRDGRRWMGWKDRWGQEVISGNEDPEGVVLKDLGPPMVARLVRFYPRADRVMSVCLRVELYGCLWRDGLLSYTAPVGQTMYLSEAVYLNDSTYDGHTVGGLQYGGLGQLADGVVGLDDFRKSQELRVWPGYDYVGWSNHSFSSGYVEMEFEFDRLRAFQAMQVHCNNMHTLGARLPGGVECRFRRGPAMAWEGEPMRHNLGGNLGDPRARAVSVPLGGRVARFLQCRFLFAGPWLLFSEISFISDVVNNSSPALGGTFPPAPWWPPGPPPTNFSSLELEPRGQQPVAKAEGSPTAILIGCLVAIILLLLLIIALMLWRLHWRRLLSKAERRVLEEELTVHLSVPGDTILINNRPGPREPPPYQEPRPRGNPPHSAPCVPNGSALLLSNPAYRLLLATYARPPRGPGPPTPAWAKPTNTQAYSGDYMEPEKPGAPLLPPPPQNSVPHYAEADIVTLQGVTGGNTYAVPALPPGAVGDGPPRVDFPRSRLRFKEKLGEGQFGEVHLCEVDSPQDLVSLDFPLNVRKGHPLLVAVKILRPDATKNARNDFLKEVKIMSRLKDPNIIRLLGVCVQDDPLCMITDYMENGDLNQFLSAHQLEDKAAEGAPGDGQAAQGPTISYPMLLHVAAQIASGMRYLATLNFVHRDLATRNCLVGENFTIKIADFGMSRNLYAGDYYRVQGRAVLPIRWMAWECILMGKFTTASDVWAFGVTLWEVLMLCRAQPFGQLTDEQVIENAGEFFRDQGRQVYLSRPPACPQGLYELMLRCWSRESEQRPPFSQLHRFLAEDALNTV
Sequence of LIM domain kinase 1 (P53667 whole entry, the tested form may be a part): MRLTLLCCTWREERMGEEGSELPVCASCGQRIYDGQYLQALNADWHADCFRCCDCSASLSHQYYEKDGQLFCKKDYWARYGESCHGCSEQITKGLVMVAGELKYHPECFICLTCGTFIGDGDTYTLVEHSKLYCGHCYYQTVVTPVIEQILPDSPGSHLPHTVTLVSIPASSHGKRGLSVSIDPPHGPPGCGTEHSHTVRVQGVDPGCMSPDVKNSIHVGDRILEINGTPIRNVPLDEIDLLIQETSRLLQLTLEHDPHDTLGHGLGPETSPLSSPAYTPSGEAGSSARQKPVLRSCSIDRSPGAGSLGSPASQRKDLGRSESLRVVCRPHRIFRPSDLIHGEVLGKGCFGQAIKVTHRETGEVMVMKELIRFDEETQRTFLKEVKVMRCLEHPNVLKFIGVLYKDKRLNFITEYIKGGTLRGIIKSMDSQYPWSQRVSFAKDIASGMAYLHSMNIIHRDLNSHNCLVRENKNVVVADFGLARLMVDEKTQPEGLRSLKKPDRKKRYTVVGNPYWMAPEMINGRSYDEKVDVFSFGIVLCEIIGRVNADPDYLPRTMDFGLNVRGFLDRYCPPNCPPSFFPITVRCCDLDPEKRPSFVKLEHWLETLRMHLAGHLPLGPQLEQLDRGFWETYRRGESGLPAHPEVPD
Sequence of Guanine nucleotide-binding protein G(i) subunit alpha-2 (P04899 whole entry): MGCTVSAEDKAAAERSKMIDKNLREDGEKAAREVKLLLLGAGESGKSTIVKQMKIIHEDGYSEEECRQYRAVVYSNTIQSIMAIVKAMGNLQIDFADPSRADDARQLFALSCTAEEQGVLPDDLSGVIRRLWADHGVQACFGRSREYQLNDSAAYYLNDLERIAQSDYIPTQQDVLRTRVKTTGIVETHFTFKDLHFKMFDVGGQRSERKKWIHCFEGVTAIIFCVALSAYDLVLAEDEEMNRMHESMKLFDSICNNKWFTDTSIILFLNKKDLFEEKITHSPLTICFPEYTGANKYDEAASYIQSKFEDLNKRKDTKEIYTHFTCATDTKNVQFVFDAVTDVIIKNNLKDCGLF
Sequence of Receptor-interacting serine/threonine-protein kinase 3 (Q9Y572 whole entry): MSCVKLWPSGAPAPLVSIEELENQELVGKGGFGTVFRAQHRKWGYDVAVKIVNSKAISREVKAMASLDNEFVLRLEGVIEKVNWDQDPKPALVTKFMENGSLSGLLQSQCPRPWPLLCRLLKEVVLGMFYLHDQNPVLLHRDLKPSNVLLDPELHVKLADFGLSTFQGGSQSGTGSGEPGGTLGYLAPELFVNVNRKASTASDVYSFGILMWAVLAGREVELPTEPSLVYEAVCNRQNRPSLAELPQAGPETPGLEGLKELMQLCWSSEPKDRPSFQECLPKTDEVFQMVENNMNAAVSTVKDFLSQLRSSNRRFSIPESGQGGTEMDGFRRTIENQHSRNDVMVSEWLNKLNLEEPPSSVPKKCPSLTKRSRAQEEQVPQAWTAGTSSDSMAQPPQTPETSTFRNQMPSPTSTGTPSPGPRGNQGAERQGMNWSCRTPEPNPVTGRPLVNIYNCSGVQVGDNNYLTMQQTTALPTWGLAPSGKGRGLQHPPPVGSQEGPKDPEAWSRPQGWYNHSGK

Compound	Kd [1]	Kd [2]	Kd [3]	Kd [4]	Kd (LIM domain kinase 1)	Kd (Heme oxygenase 2)	Kd [5]	Kd [6]	Kd [7]	Kd [8]	Kd [9]	Kd [10]	Kd [11]
O[C@H]1CC[C@H](Nc2ncc3nc(Nc4c(F)cc(F)cc4F)n([C@H]4CCOC4)c3n2)CC1 [TANZISERTIB]	> 30 µM (inactive)	> 30 µM (inactive)	> 30 µM (inactive)	> 30 µM (inactive)	2.17 µM (active)	> 30 µM (inactive)	> 30 µM (inactive)	> 30 µM (inactive)	> 30 µM (inactive)	> 30 µM (inactive)	> 30 µM (inactive)	> 30 µM (inactive)	–
Cn1cnc2c(F)c(Nc3ccc(Br)cc3Cl)c(C(=O)NOCCO)cc21 [SELUMETINIB]	–	–	–	–	–	> 30 µM (inactive)	–	–	–	> 30 µM (inactive)	> 30 µM (inactive)	> 30 µM (inactive)	–
Cn1c(=O)n(-c2ccc(C(C)(C)C#N)cc2)c2c3cc(-c4cnc5ccccc5c4)ccc3ncc21 [DACTOLISIB]	> 30 µM (inactive)	> 30 µM (inactive)	> 30 µM (inactive)	> 30 µM (inactive)	–	> 30 µM (inactive)	–	> 30 µM (inactive)	> 30 µM (inactive)	> 30 µM (inactive)	> 30 µM (inactive)	> 30 µM (inactive)	–
COc1cc2c(N3CCN(C(=O)Nc4ccc(OC(C)C)cc4)CC3)ncnc2cc1OCCCN1CCCCC1 [TANDUTINIB]	–	–	–	–	–	–	–	–	–	> 30 µM (inactive)	–	> 30 µM (inactive)	–
O=S(=O)(c1cccc2cnccc12)N1CCCNCC1 [FASUDIL]	> 30 µM (inactive)	> 30 µM (inactive)	> 30 µM (inactive)	> 30 µM (inactive)	–	> 30 µM (inactive)	–	–	> 30 µM (inactive)	> 30 µM (inactive)	> 30 µM (inactive)	> 30 µM (inactive)	–
CCN(CCCOc1ccc2c(Nc3cc(CC(=O)Nc4cccc(F)c4)n[nH]3)ncnc2c1)CCOP(=O)(O)O [BARASERTIB]	> 30 µM (inactive)	> 30 µM (inactive)	> 30 µM (inactive)	–	–	> 30 µM (inactive)	–	> 30 µM (inactive)	> 30 µM (inactive)	> 30 µM (inactive)	> 30 µM (inactive)	> 30 µM (inactive)	–
CCN1CCN(Cc2ccc(Nc3ncc(F)c(-c4cc(F)c5nc(C)n(C(C)C)c5c4)n3)nc2)CC1 [ABEMACICLIB]	0.019 µM (active)	> 30 µM (inactive)	> 30 µM (inactive)	> 30 µM (inactive)	> 30 µM (inactive)	> 30 µM (inactive)	–	> 30 µM (inactive)	> 30 µM (inactive)	> 30 µM (inactive)	> 30 µM (inactive)	> 30 µM (inactive)	> 30 µM (inactive)
C[C@@]1(C(=O)Nc2ccc(F)nc2)CCCN1c1nc(Nc2cc(C3CC3)n[nH]2)c2cccn2n1 [BMS-754807]	–	–	–	–	–	> 30 µM (inactive)	–	–	–	> 30 µM (inactive)	> 30 µM (inactive)	> 30 µM (inactive)	–
C[C@]1(O)C[C@@H](c2nc(-c3ccc4ccc(-c5ccccc5)nc4c3)c3c(N)nccn32)C1 [LINSITINIB]	–	–	–	> 30 µM (inactive)	> 30 µM (inactive)	> 30 µM (inactive)	–	> 30 µM (inactive)	> 30 µM (inactive)	6.05 µM (active)	> 30 µM (inactive)	> 30 µM (inactive)	–
